In patent US20070041904A1, “Peptides whose uptake by cells is controllable” (priority 2003, published 2007):

Tests used:
[1] = system: MDA-MB-231 cells; assay: ACPP uptake in 3D Matrigel culture, MDA-MB-231; format: cell-based; conditions: Homo sapiens, 0.1 mM GM6001, read-out: inhibition of uptake of PLGLAG-containing ACPP
Procedure: FIG. 56: MDA-MB-231 cells in 3-D culture make enough MMPs to take up ACPP over 24 hr. The left two columns show results with e9-XPLGLAG-r9-k(Cy5) without or with 0.1 mM GM6001, a general inhibitor of MMPs. GM6001 also reduces invasiveness of the cells, explaining why the cell cluster is smaller. The right two columns show e9-Xplglag-r9-k(Cy5) as a nonhydrolyzable negative control and r9-k(Cy5) as a positive control. […] Note that these ACPPs have no macromolecular carrier, because there is no need to hinder kidney excretion and because the macromolecular carriers seem to hinder diffusion through the Matrigel and into these organoids, which lack active circulation.
3D tissue cultures in matrigel (FIG. 53) may also be used in the practice of this invention. Such 3D cultures are more realistic models than isolated tumor cells, and offer higher-resolution analysis than is possible in live animals. […]
For these studies, tricine gels, fluorescence imaging, and flow cytometry protocols were used to quantify cleavage and uptake of ACPPs into the 3D cultures. Fluorescence imaging allowed detection of total fluorescence of surface and intracellular peptide, whereas flow cytometry measured fluorescence remaining inside cells after clusters have been digested into single cells and stripped of surface binding via trypsinization. […]

[2] = system: HT1080 xenografts and mouse tissues; assay: Biodistribution of radiolabeled ACPPs in mice with HT1080 xenografts; format: in vivo, nude mice
Procedure: FIG. 50: Biodistribution of ^99mTc-labeled albumin-ACPP. Mice xenografted as in FIG. 49 were sacrificed at 6, 24, and 48 hr after injection, organs were dissected, weighed, and radioactivity counted within 2 hrs to obtain % injected dose (% ID)/g tissue as shown in the bar graph (means±s.d., n=4 per time point). The inset table gives the corresponding mean standardized uptake values (SUV) defined as animal weight×(% ID/g tissue).
Serial scans were performed using the Biospace small animal planar scintigraphic imager. The % ID/g (% injected dose retained per gram of tissue) was measured by scintillation counting of tissues harvested post-mortem. The inventors have tested the above ACPPs and three other ^99mTc-labeled ACPPs: (70 KDa-dextran)-e9-XPLGLAG-r9-[DPK-^99mTc(CO)3], (murine serum albumin)-e9-XPLGLAG-r9-[DPK-^99mTc(CO)3], and (PAMAM generation 5 dendrimer)-e9-XPLGLAX-r9-[DPK-^99mTc(CO)3]. […] The tumor margins, however, appear relatively well-defined at earlier time points (see FIG. 48).
Because the ratio of tumor to liver uptake was at variance with the results obtained with fluorescent and magnetic labels and because of the limited literature on the use of DPK, the inventors tested whether the DPK chelator could be responsible for the affinity for normal tissues. Thus, the inventors synthesized and tested (70 KDa dextran)-e9-XPLGLAX-r9-(DOTA-^111In).

[3] = system: MMP-9; assay: Fluorescence change upon enzymatic cleavage of self-quenching / FRET ACPPs; format: biochemical
Text: (§1) Thus, such molecules may be administered in vivo, and are cleaved in vivo.
ACPPs with self-quenching fluorophores [Cy5-X-e6-XPLGLAG-r9-Xk(Cy5)] or FRET pairs [Cy7-X-e6-XPLGLAG-r9-Xk(Cy5)] were synthesized. […] The inventors have found these two substrates to be poorly soluble in physiological media, even though the inventors decreased the number of glutamate residues from nine to six so that the molecules would carry more net charge.

[4] = system: Enterokinase; assay: Peptide cleavage by enterokinase monitored by HPLC; format: biochemical; conditions: 0.38 mM peptide stock, 1 U/μl enterokinase
Procedure: 10 μl 0.38 mM peptide dissolved in water stock solution was added to 10 μl 1 U/μl Enterokinase (Invitrogen, EKmax) and the cleavage progress was monitored by injecting 5 μl of the reaction mixture on HPLC monitored at 440 nm. The peptide was designed to be a substrate for enterokinase, with cleavage by enterokinase expected between the K and A residues. A High Performance Liquid Chromatography (HPLC) chromatogram of the peptide EDDDDKA-aca-R9-aca-C(Fl)-CONH2 (SEQ ID NO: 3) (before cleavage of linker portion between K and A) is illustrated in FIG. 6A. […] FIG. 6B illustrates the HPLC chromatogram of the peptide of FIG. 6A after cleavage by enterokinase. The new peak was collected and determined on a mass spectrometer. The determined mass corresponded (as expected) to cleavage between K and A in the sequence of EDDDDKA-aca-R9-aca-C(Fl)-CONH2. (SEQ ID NO: 3)
ACPP Cleavage by Enterokinase: 10 μl of a 0.38 mM peptide stock solution dissolved in water was mixed with 10 μl 1 U/μl enterokinase (Invitrogen) and incubated at 37° C. Enzymatic cleavage was monitored by injecting 5 μl of the reaction mixture on HPLC and observing either UVvis absorbance at 440 nm for fluorescein labeled or 650 nm for Cy5 labeled peptide. […] The new peaks were collected and their identities were determined by mass spectroscopy.

[5] = system: HT-1080 tumors and mouse tissues; assay: Standardized uptake values in tissues after peptide injection; format: in vivo, mice; conditions: 1 hr after injection
Procedure: Xenografts in Mice. Nude mice (age, 4-6 weeks) were injected s.c. with ≈10^6 HT-1080 cells. Once the tumors had reached ≈5-7 mm in size (typically 1-2 weeks later), animals were anesthetized with 100 mg/kg ketamine and 5 mg/kg midazolam), weighed, and injected with ≈100 μl of 60 μM peptide through the tail vein. Animals were then imaged at various times by using a Nikon f/1.2 camera lens in front of a cooled charge-coupled device camera (SenSys, Photometrics, Tucson, Ariz.). For longer lasting imaging studies, animals were allowed to wake up after 2 h of anesthesia and were reanesthetized at ≈4 and 6 hr for further data collection. Plasma half-lives were determined by the decrease in fluorescence intensity of ≈5-μl blood samples withdrawn periodically into heparinized capillaries. After imaging was ended, animals were killed with halothane, and organs of interest were harvested and weighed. For frozen sectioning, tissues were added to OCT cryopreservative and frozen on dry ice and hexane. […] Cy5 fluorescence was imaged as described above. […] Two sets of standards (liver and kidney) were used to calibrate fluorescence intensity in terms of peptide concentration. From this calibration, the quantity of peptide in 30 mg of tissue for each organ was calculated. SUVs were calculated as the molality of peptide in the tissue divided by the total injected dose as mol/kg of body weight. […]

[6] = system: tumor, kidney and liver of xenografted mice; assay: Cyclic ACPP tested in xenografted mice; format: in vivo
Procedure: as §1
To generate cyclic peptides, the inventors synthesized cyclic[succinoyl-PLGLAG-c(11 KDa-mPEG)-e9-XPLGLAG-r9-K]-k(Cy5), which contains two cleavage sites. This cyclic ACCP was tested in xenografted mice. […] Thus, the cyclic substrate requiring two cleavages should favor the liver to an even greater extent. One of skill in the art would recognize that once peptide sequences (preferably two distinct ones) were obtained that individually are preferentially cleaved in the tumor over the liver, then the two-cut ACPPs would become advantageous for the practice of this invention.

## CNC(=O)[C@H](Cc1c[nH]c2ccccc12)NC(=O)[C@@H](CC(=O)NO)CC(C)C [GM6001]
[1]
  inhibition at 100 µM: ~50%

## (murine serum albumin)-e9-XPLGLAG-r9-[DPK-^99mTc(CO)3]
[2]; HT1080 xenograft
  tumor uptake: 1-3 % ID/g
[2]; mouse, in vivo
  liver uptake: 12-18 % ID/g

## Cy5-X-e6-XPLGLAG-r9-Xk(Cy5)
[3]
  increase of fluorescence intensity upon cleavage by MMP-9: 3.9 fold

## Cy7-X-e6-XPLGLAG-r9-Xk(Cy5)
[3]; FRET substrate
  increase in ratio of 650 to 770 nm emissions upon cleavage: 6.6 -fold

## EDDDDKA-aca-R9-aca-C(Fl)-CONH2 (EDDDDKAXRRRRRRRRRXX; aminocaproic linkers, fluorescein, C-terminal amide; Description of Artificial Sequence:peptide designed to be substrate for enterokinase; Xaa = aminohexanoic acid (aminocaproic acid); Xaa = cysteinamide modified by fluorescein (Fl))
[4]
  time to almost complete cleavage by enterokinase: 15 min

## [11-kDa PEG]-X-e9-XPLG*LAG-r9-Xk(Cy5)
[5]
  tumor SUV ratio cleavable vs control: 3.1

## cyclic[succinoyl-PLGLAG-c(11 KDa-mPEG)-e9-XPLGLAG-r9-K]-k(Cy5)
[6]; compared to linear peptide with single cleavage site
  decrease of tumor signal vs linear peptide: 2 factor
[6]; mouse, in vivo
  increase of liver signal vs linear peptide: ~10 factor
